One test has as its system mouse locomotor activity. In words: Reduction of mouse locomotor activity (hypolocomotion). The test is classed as in vivo, mouse (male, CF-1). The note with it: 20 min, sc, horizontal activity counts collected 10 to 20 minutes after dosing. On the procedure: The antipsychotic activity of the compounds of the invention was further established by a determination of the compounds' ability to reduce mouse locomotor activity according to the method of Martin and Bendensky, J. Pharmacol. Exp. Therap. 229: 706-711, 1984, in which mice (male, CF-1, Charles River, 20-30 g) were injected with vehicle or various doses of each drug and locomotor activity was measured for 30 minutes using automated infrared activity monitors (Omnitech-8×8 inch open field) located in a darkened room. ED50 's were calculated from the horizontal activity counts collected from 10 to 20 minutes after dosing using a nonlinear regression analysis with inverse prediction.

The next test addresses T1, dopamine D2 receptor (Rattus norvegicus, UniProt P61169).
T1 construct: homogenized rat striatal brain tissue; from tissue; host or cells: rat striatum (homogenate)
The test can be described thus: Affinity for the dopamine D2 receptor (3H-quinpirole, rat striatal brain tissue homogenate). The test is classed as binding. The note with it: homogenized rat striatal brain tissue. The method, then:
Affinity for the dopamine D2 receptor was established by a modification of the standard experimental test procedure of Seemen and Schaus, European Journal of Pharmacology 203: 105-109, 1991, wherein homogenized rat striatal brain tissue is incubated with ^3 H-quinpirole and various concentrations of test compound, filtered and washed and counted in a Betaplate scintillation counter.

The next test deals with dopamine autoreceptor. The test can be described thus: GBL model: effect on synthesis of dopamine (inhibition of dopa accumulation). Format: in vivo, rat (male, Sprague-Dawley). The note with it: rat, 10 mg/kg, sc; GBL 750 mg/kg ip, NSD-1015 100 mg/kg ip. The method, then:
The effect of the compounds of the invention on the synthesis of dopamine was established by the method of Walters and Roth, Naunyn-Schmiedeberg's Arch. Pharmacol. 296:5-14, 1976, in which rats (male, Sprague-Dawley, Charles River, 200-350 g) were administered vehicle or test drug ten minutes prior to the administration of gamma butyrolactone (GBL; 750 mg/kg, ip to inhibit dopaminergic impulse flow) and 20 minutes prior to NSD-1015 (100 mg/kg, ip to prevent the conversion of dopa to dopamine). Thirty minutes after NSD-1015 all rats were decapitated and the nucleus accumbens and the striatum were removed for analysis. Following perchloric acid extraction of the tissue, the extracts were placed over alumina columns to collect and concentrate dopa and other catechols. This eluate was then subjected to HPLC analysis using electrochemical detection to quantify the levels of dopa present. Dopamine autoreceptor agonists, under the conditions used above, inhibit dopa accumulation. […]

pIC50: −log10 of the molar value.

As a reminder, the ED50 is the dose at which the effect has come halfway, by size or by number of responders. A word on the pIC50: it is −log10 of the IC50, conventionally taken in molar units. A high value points to a small IC50.

T1 sequence (P61169 whole entry): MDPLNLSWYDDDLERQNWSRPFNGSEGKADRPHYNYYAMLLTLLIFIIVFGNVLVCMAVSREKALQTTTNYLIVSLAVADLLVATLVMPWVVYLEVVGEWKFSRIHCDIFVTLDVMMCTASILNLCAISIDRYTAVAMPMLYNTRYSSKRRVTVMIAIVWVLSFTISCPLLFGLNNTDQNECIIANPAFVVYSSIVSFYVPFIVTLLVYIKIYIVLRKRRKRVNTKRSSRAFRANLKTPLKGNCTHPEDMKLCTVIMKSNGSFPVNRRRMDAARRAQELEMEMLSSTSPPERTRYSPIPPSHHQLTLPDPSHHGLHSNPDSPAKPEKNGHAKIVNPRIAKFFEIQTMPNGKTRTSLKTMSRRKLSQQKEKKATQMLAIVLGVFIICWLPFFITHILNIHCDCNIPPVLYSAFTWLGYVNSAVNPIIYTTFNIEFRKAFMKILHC

In the test on mouse locomotor activity, `O=C1Cc2c(ccc3c2O[C@@H](CNCc2ccccc2)CO3)N1` [Example 1] registered an ED50 of 3.1 µg/kg. On dopamine D2 receptor, this compound gave a pIC50 of 9.43. In addition, the “inhibition of dopa accumulation” value in the test with dopamine autoreceptor worked out at 67.5%.

Regarding `Cc1ccc(CNC[C@H]2COc3ccc4c(c3O2)CC(=O)N4)cc1` [Example 7], the 50% effect level in the test on mouse locomotor activity (ED50) was put at a dose of 5 µg/kg. Further, the pIC50 against dopamine D2 receptor is 9.47.

Take `Cc1ccc(CNC[C@H]2COc3cc(C)c4c(c3O2)CC(=O)N4)cc1` [Example 28, 2-[(4-Methyl-benzylamino)-methyl]-6-methyl-2,3,8,9-tetrahydro-7H-1,4-dioxino[2,3-e]indol-8-one]: in the test with mouse locomotor activity, the ED50 was 24 µg/kg. On dopamine D2 receptor, this compound showed a pIC50 of 8.86.

Take `O=C1Cc2c(ccc3c2O[C@@H](CNCC24CC5CC(CC(C5)C2)C4)CO3)N1` [Example 14]: in the test on mouse locomotor activity, the ED50 amounted to 8 µg/kg. At dopamine D2 receptor, this compound gave a pIC50 of 9.37.

For `O=C1Cc2c(c(F)cc3c2O[C@@H](CNCCCc2c[nH]c4ccccc24)CO3)N1` [Example 39, 6-Fluoro-2-{[3-(1H-indol-3-yl)-propylamino]-methyl}-2,3,8,9-tetrahydro-7H-1,4-dioxino[2,3-e]indol-8-one], the 50% effect level with mouse locomotor activity (ED50) was put at a dose of 64 µg/kg. On dopamine D2 receptor, this compound gave a pIC50 of 9.11.

(Values after patent publication US5756532A, “Aminomethyl-2 3 8 9-tetrahydro-7H-1 4-dioxino[2 3-E]-indol-8-ones and derivatives” (American Home Products Corporation, priority 1996, dated 1998).)
